One assay has as its target His-AKT (Full Length) (Homo sapiens (Human), UniProt P31749). As to the kind of experiment: AKT enzyme assay. Format: biochemical. As for the experimental part: A TTP Mosquito liquid handling instrument is used to place 125n1 of the appropriate concentration of inhibitor in 100% DMSO (for a dose response curve calculation) into each well of a 384-well plate.
The reaction is incubated for 90 min at 25 C, and then stopped by the addition of 70 μl of Stop buffer (100 mM HEPES pH 7.5, 0.015% Brij-35, 10 mM EDTA (Sigma, E7889)).
The plate is read on a Caliper LC 3000 in an Off-Chip mobility shift assay format, using the following parameters for a 12-sipper chip: screening pressure −2.3 psi, upstream voltage −500, and downstream voltage −3000. These conditions cause unphosphorylated substrate and phosphorylated product peptide to resolve as separate peaks allowing direct measurement of percentage of conversion of substrate to product. The percent conversion can be plotted against concentration of inhibitor to produce a sigmoidal dose response curve, from which an IC50 can be calculated.

A further assay addresses P70S6K (T412E mutant) (Homo sapiens (Human), UniProt P23443, T412E). As to the kind of experiment: P70S6K enzyme assay. Type of assay: biochemical. The method in brief:
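Phosphorylated product and substrate peptide separated by microfluidic capillary electrophoresis (Caliper LabChip 3000), product peaks resolving before substrate.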

The structures appear in SMILES notation. Where two headings read alike, the source gives them in different places.

P70S6K (T412E mutant), sequence (P23443 whole entry T412E): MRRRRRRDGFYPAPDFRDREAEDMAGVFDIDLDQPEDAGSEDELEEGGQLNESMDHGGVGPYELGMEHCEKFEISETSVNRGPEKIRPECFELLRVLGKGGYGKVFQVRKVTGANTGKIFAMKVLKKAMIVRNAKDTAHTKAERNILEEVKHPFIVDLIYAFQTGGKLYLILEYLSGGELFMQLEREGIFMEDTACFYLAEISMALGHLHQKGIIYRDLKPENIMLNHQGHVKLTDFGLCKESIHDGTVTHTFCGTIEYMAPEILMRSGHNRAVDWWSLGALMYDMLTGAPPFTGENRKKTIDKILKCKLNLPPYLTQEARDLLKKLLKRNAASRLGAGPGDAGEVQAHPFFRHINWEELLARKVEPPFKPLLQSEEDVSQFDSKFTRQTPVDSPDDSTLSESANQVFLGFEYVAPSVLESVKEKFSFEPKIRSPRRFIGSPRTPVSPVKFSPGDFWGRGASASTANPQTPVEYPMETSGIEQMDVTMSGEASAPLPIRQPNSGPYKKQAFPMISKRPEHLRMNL
His-AKT (Full Length), sequence (P31749 whole entry): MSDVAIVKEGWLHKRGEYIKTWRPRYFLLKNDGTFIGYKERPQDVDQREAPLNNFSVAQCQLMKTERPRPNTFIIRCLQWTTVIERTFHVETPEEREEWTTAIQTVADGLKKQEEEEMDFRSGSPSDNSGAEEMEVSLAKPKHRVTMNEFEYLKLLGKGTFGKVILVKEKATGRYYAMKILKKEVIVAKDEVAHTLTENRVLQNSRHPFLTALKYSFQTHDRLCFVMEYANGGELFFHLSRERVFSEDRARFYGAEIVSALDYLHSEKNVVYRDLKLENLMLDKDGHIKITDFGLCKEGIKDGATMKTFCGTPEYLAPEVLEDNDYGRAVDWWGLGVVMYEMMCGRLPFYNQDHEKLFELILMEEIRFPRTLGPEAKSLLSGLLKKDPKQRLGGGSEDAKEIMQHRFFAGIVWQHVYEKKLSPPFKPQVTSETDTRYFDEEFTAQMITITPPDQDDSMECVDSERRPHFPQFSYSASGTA

As a reminder, the IC50 is the concentration that inhibits the measured activity by half. As to `CNCCn1cc(-c2ccc(F)c(C)c2)nc1C1CCN(c2ncnc(N)c2-c2cn[nH]c2)CC1` [Compound 162, 6-(4-(4-(4-fluoro-3-methylphenyl)-1-(2-(methylamino)ethyl)-1H-imidazol-2-yl)piperidin-1-yl)-5-(1H-pyrazol-4-yl)pyrimidin-4-amine], the IC50 on His-AKT (Full Length) (read-out: IC50 AKT) worked out at 21 nM; on P70S6K (T412E mutant) (read-out: IC50 p70S6K), 5.9 nM.
As for `CCc1c(N)ncnc1N1CCC(c2nc(-c3ccc(F)c(C)c3)cn2CC2CN(C)C2)CC1` [Compound 400, 5-Ethyl-6-{4-[4-(4-fluoro-3-methyl-phenyl)-1-(1-methyl-azetidin-3-ylmethyl)-1H-imidazol-2-yl]-piperidin-1-yl}-pyrimidin-4-ylamine], the IC50 on His-AKT (Full Length) (read-out: IC50 AKT) is 0.3 nM; on P70S6K (T412E mutant) (read-out: IC50 p70S6K), 0.06 nM.
In the case of `CCc1c(N)ncnc1N1CCC(c2nc(-c3ccc(F)c(C(F)(F)F)c3)cn2CCN2CC(F)C2)CC1` [Compound 92, 5-ethyl-6-(4-(4-(4-fluoro-3-(trifluoromethyl)phenyl)-1-(2-(3-fluoroazetidin-1-yl)ethyl)-1H-imidazol-2-yl)piperidin-1-yl)pyrimidin-4-amine], the IC50 on His-AKT (Full Length) (read-out: IC50 AKT) is 71 nM; at P70S6K (T412E mutant) (read-out: IC50 p70S6K), 4.2 nM.
For `Nc1ncnc(N2CCC(c3nc(-c4ccc(F)c(C(F)(F)F)c4)cn3CCN3CCC3)CC2)c1OCC(F)(F)F` [Compound 103, 6-(4-(1-(2-(azetidin-1-yl)ethyl)-4-(4-fluoro-3-(trifluoromethyl)phenyl)-1H-imidazol-2-yl)piperidin-1-yl)-5-(2,2,2-trifluoroethoxy)pyrimidin-4-amine], the IC50 on His-AKT (Full Length) (read-out: IC50 AKT) worked out at 6.6 nM; on P70S6K (T412E mutant) (read-out: IC50 p70S6K) it was 4.2 nM.
The corresponding values for `NC(=O)c1c(N)ncnc1N1CCC(c2nc(-c3ccnc(C4CC4)c3)cn2CCN2CCC2)CC1` [Compound 342] are 61 nM and 3.7 nM.
With `C=Cc1c(N)ncnc1N1CCC(c2nc(-c3cccc(F)c3)cn2CCN2CCCC2)CC1` [Compound 240], the IC50 was determined as 21 nM at His-AKT (Full Length) (read-out: IC50 AKT) and 0.9 nM on P70S6K (T412E mutant) (read-out: IC50 p70S6K).
For `CCOc1c(N)ncnc1N1CCC(c2nc(-c3ccnc(C(F)(F)F)c3)cn2CCN2CCC2)CC1` [Compound 116, 6-(4-(1-(2-(azetidin-1-yl)ethyl)-4-(2-(trifluoromethyl)pyridin-4-yl)-1H-imidazol-2-yl)piperidin-1-yl)-5-ethoxypyrimidin-4-amine], the IC50 turned out to be 8.2 nM at His-AKT (Full Length) (read-out: IC50 AKT) and 2.4 nM at P70S6K (T412E mutant) (read-out: IC50 p70S6K).
With `Nc1cc(N2CCC(c3nc(-c4ccc(F)c(F)c4)cn3CCN3CCCC3)CC2)ncn1` [Compound 243], the IC50 on His-AKT (Full Length) (read-out: IC50 AKT) is 63 nM; at P70S6K (T412E mutant) (read-out: IC50 p70S6K), 18 nM.
Turning to `C=C(C)c1c(N)ncnc1N1CCC(c2nc(-c3ccc(F)c(C(F)(F)F)c3)cn2CCN2CCCC2)CC1` [Compound 213], the IC50 on His-AKT (Full Length) (read-out: IC50 AKT) was found to be 20 nM; on P70S6K (T412E mutant) (read-out: IC50 p70S6K), 7.9 nM.
As to `Cn1cc(-c2ccc(F)c(C(F)(F)F)c2)nc1C1CCN(c2ncnc(N)c2-c2ccncc2)CC1` [Compound 39, 6-{4-[4-(4-Fluoro-3-trifluoromethyl-phenyl)-1-methyl-1H-imidazol-2-yl]-piperidin-1-yl}-5-pyridin-4-yl-pyrimidin-4-ylamine], the IC50 at His-AKT (Full Length) (read-out: IC50 AKT) was determined as 860 nM; at P70S6K (T412E mutant) (read-out: IC50 p70S6K), 1.4 nM.
Consider `NC(=O)c1c(N)ncnc1N1CCC(c2nc(-c3ccc(F)c(C(F)(F)F)c3)cn2C[C@@H]2CCN2)CC1` [Compound 150, (S)-4-amino-6-(4-(1-(azetidin-2-ylmethyl)-4-(4-fluoro-3-(trifluoromethyl)phenyl)-1H-imidazol-2-yl)piperidin-1-yl)pyrimidine-5-carboxamide], for which the IC50 on His-AKT (Full Length) (read-out: IC50 AKT) came to 220 nM; at P70S6K (T412E mutant) (read-out: IC50 p70S6K), 10 nM.
Take `N#Cc1c(N)ncnc1N1CCC(c2nc(-c3ccc(F)c(C(F)(F)F)c3)cn2CCN2CCCC2)CC1` [Compound 305]: the IC50 on His-AKT (Full Length) (read-out: IC50 AKT) stood at 3.2 nM; at P70S6K (T412E mutant) (read-out: IC50 p70S6K) it was 1.9 nM.
As to `NC(=O)c1c(N)ncnc1N1CCC(c2nc(-c3ccsc3)cn2CCN2CCC2)CC1` [Compound 134, 4-amino-6-(4-(1-(2-(azetidin-1-yl)ethyl)-4-(thiophen-3-yl)-1H-imidazol-2-yl)piperidin-1-yl)pyrimidine-5-carboxamide], the IC50 turned out to be 1900 nM on His-AKT (Full Length) (read-out: IC50 AKT) and 6 nM at P70S6K (T412E mutant) (read-out: IC50 p70S6K).
Turning to `Cn1cc(-c2ccc(F)c(C(F)(F)F)c2)nc1C1CCN(c2ncnc(N)c2-c2cncnc2)CC1` [Compound 48, 6-{4-[4-(4-Fluoro-3-trifluoromethyl-phenyl)-1-methyl-1H-imidazol-2-yl]-piperidin-1-yl}-[5,5′]bipyrimidinyl-4-ylamine], the figures for the IC50 on His-AKT (Full Length) (read-out: IC50 AKT) and at P70S6K (T412E mutant) (read-out: IC50 p70S6K) were 440 nM and 2.7 nM, respectively.
With `Cc1cc(-c2cn(CCNC3CC3)c(C3CCN(c4ncnc(N)c4-c4cn[nH]c4)CC3)n2)ccc1F` [Compound 161, 6-(4-(1-(2-(cyclooropylamino)ethyl)-4-(4-fluoro-3-methylphenyl)-1H-imidazol-2-yl)piperidin-1-yl)-5-(1H-pyrazol-4-yl)pyrimidin-4-amine], the IC50 turned out to be 150 nM on His-AKT (Full Length) (read-out: IC50 (AKT enzyme)), 150 nM on His-AKT (Full Length) (read-out: IC50 AKT), 12.9 nM on P70S6K (T412E mutant) (read-out: IC50 (p70S6K enzyme)) and 12.9 nM on P70S6K (T412E mutant) (read-out: IC50 p70S6K).
On to `Nc1ncnc(N2CCC(c3nc(-c4ccc(Cl)cc4)cn3CCN3CCCC3)CC2)c1C1CCC1` [Compound 263], for which the figures for the IC50 on His-AKT (Full Length) (read-out: IC50 AKT) and at P70S6K (T412E mutant) (read-out: IC50 p70S6K) were 79 nM and 25 nM, respectively.
For the compound `Cc1cc(-c2cn(CCNCC(C)C)c(C3CCN(c4ncnc(N)c4C(N)=O)CC3)n2)ccc1F` [Compound 392, 4-Amino-6-{4-[4-(4-fluoro-3-methyl-phenyl)-1-(2-isobutylamino-ethyl)-1H-imidazol-2-yl]-piperidin-1-yl}-pyrimidine-5-carboxylic acid amide], the half-inhibitory concentration (IC50) at His-AKT (Full Length) (read-out: IC50 AKT) was determined as 13 nM; on P70S6K (T412E mutant) (read-out: IC50 p70S6K), 5.5 nM.
As to `CC(C)(C)NCCn1cc(-c2ccc(F)c(C(F)(F)F)c2)nc1C1CCN(c2ncnc(N)c2C(N)=O)CC1` [Compound 377, 4-Amino-6-{4-[1-(2-tert-butylamino-ethyl)-4-(4-fluoro-3-trifluoromethyl-phenyl)-1H-imidazol-2-yl]-piperidin-1-yl}-pyrimidine-5-carboxylic acid amide], the IC50 on His-AKT (Full Length) (read-out: IC50 AKT) is 9.7 nM; at P70S6K (T412E mutant) (read-out: IC50 p70S6K), 2 nM.
On to `COCC(C)NCCn1cc(-c2ccc(F)c(C(F)(F)F)c2)nc1C1CCN(c2ncnc(N)c2C(N)=O)CC1` (centres unmarked) [Compound 371, 4-Amino-6-(4-{4-(4-fluoro-3-trifluoromethyl-phenyl)-1-[2-(2-methoxy-1-methyl-ethylamino)-ethyl]-1H-imidazol-2-yl}-piperidin-1-yl)-pyrimidine-5-carboxylic acid amide], for which the IC50 on His-AKT (Full Length) (read-out: IC50 AKT) was found to be 85 nM; on P70S6K (T412E mutant) (read-out: IC50 p70S6K), 18 nM.
In the case of `N#Cc1c(N)ncnc1N1CCC(c2nc(C3CCCCC3)cn2CCN2CCC2)CC1` [Compound 77, 4-Amino-6-{4-[1-(2-azetidin-1-yl-ethyl)-4-cyclohexyl-1H-imidazol-2-yl]-piperidin-1-yl}-pyrimidine-5-carbonitrile], the IC50 at His-AKT (Full Length) (read-out: IC50 AKT) came out at 76 nM; at P70S6K (T412E mutant) (read-out: IC50 p70S6K), 6 nM.
Take `Nc1ncnc(N2CCC(c3nc(-c4ccc(F)c(F)c4)cn3CCN3CCCC3)CC2)c1Br` [Compound 226]: the IC50 on His-AKT (Full Length) (read-out: IC50 AKT) is 1.7 nM; on P70S6K (T412E mutant) (read-out: IC50 p70S6K), 1.3 nM.
Consider `C=Cc1c(N)ncnc1N1CCC(c2nc(-c3ccc(F)c(C(F)(F)F)c3)cn2CC2CNC2)CC1` [Compound 183, 6-(4-(1-(azetidin-3-ylmethyl)-4-(4-fluoro-3-(trifluoromethyl)phenyl)-1H-imidazol-2-yl)piperidin-1-yl)-5-vinylpyrimidin-4-amine], for which the IC50 on His-AKT (Full Length) (read-out: IC50 AKT) was 74 nM; on P70S6K (T412E mutant) (read-out: IC50 p70S6K), 12 nM.
As to `CC(C)N(C)CCn1cc(-c2ccc(F)c(C(F)(F)F)c2)nc1C1CCN(c2ncnc(N)c2C(N)=O)CC1` [Compound 361, 4-Amino-6-(4-{4-(4-fluoro-3-trifluoromethyl-phenyl)-1-[2-(isopropyl-methyl-amino)-ethyl]-1H-imidazol-2-yl}-piperidin-1-yl)-pyrimidine-5-carboxylic acid amide], the figures for the IC50 at His-AKT (Full Length) (read-out: IC50 AKT) and at P70S6K (T412E mutant) (read-out: IC50 p70S6K) were 11 nM and 6.4 nM, respectively.
Regarding `N#Cc1c(N)ncnc1N1CCC(c2nc(-c3ccc(F)c(C(F)(F)F)c3)cn2C2CCNCC2)CC1` [Compound 155, 4-amino-6-(4-(4-(4-fluoro-3-(trifluoromethyl)phenyl)-1-(piperidin-4-yl)-1H-imidazol-2-yl)piperidin-1-yl)pyrimidine-5-carbonitrile], the IC50 stood at 160 nM on His-AKT (Full Length) (read-out: IC50 AKT) and 0.9 nM on P70S6K (T412E mutant) (read-out: IC50 p70S6K).
Consider `Cc1ccc(-c2cn(CCN3CCC3)c(C3CCN(c4ncnc(N)c4C#N)CC3)n2)cc1C(F)(F)F` [Compound 316], for which the figures for the IC50 on His-AKT (Full Length) (read-out: IC50 AKT) and at P70S6K (T412E mutant) (read-out: IC50 p70S6K) were 24 nM and 0.8 nM, respectively.
Regarding `CCc1c(N)ncnc1N1CCC(c2nc(-c3cncc(C)c3)cn2CCN2CCC2)CC1` [Compound 113, 6-(4-(1-(2-(azetidin-1-yl)ethyl)-4-(5-methylpyridin-3-yl)-1H-imidazol-2-yl)piperidin-1-yl)-5-ethylpyrimidin-4-amine], the values for the IC50 on His-AKT (Full Length) (read-out: IC50 AKT) and at P70S6K (T412E mutant) (read-out: IC50 p70S6K) were 465 nM and 84 nM, respectively.
As for `Nc1ncnc(N2CCC(c3nc(-c4ccc(F)c(C(F)(F)F)c4)cn3CCN3CCC3)CC2)c1-c1cc[nH]c1` [Compound 110, 6-(4-(1-(2-(azetidin-1-yl)ethyl)-4-(4-fluoro-3-(trifluoromethyl)phenyl)-1H-imidazol-2-yl)piperidin-1-yl)-5-(1H-pyrrol-3-yl)pyrimidin-4-amine], the IC50 on His-AKT (Full Length) (read-out: IC50 AKT) turned out to be 1.9 nM; at P70S6K (T412E mutant) (read-out: IC50 p70S6K), 0.7 nM.

The values are drawn from patent publication US9145392B2, “Imidazole amines as modulators of kinase activity” (Merck Patent GmbH, priority 2011, dated 2015).
